How the values were obtained:
AHR [1] = target: T1, AHR (Homo sapiens, UniProt P35869); assay: In vitro assay 1: antagonism in human cell line (AHR transactivation, firefly luciferase reporter, kynurenic acid prestimulated); assay type: cell-based; conditions: AHR Antagonism Human IC50 [M]
T1 construct: U87 MG glioblastoma cells (ATCC #HTB-14) endogenously expressing AHR; endogenous in cells; host or cells: U87 MG glioblastoma cells (ATCC #HTB-14)
T1 sequence (P35869 11-848): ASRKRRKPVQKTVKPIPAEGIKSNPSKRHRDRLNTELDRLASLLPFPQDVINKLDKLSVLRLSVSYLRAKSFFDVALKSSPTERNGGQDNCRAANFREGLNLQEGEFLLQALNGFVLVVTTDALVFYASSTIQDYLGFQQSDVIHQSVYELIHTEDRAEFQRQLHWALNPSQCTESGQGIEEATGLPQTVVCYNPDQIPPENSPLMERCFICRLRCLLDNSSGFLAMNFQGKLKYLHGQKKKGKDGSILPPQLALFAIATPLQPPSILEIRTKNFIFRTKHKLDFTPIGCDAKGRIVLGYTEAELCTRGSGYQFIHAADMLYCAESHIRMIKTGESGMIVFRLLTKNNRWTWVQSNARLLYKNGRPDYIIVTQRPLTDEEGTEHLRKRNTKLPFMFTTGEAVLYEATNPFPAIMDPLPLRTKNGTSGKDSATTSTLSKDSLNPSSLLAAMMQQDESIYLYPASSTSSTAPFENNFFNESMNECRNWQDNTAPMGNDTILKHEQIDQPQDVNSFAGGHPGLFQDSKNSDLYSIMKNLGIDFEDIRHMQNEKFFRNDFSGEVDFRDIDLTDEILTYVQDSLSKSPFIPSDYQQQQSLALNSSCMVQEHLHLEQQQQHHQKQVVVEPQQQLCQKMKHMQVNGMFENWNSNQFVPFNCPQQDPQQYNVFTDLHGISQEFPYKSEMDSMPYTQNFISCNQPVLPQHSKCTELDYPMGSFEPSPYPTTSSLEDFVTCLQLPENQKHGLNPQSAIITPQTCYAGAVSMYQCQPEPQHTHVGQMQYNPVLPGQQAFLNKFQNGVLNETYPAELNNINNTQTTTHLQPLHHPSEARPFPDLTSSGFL
Outline: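 Antagonism is measured against kynurenic acid prestimulation in U87 MG glioblastoma cells carrying stable DRE-luciferase and Renilla reporters. Positive inhibition control: 150 μM kynurenic acid with 5 μM staurosporine. Values are normalized to controls; repeats are averaged or given as medians.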

AHR [2] = target: T2, AHR (Mus musculus, UniProt P30561); assay: In vitro assay 3: antagonism in mouse cell line (AHR transactivation, firefly luciferase reporter, kynurenic acid prestimulated); assay type: cell-based; conditions: mouse Hepa 1c1c7 cells, 200 μM kynurenic acid, 20 hours, read-out: AHR Antagonism Mouse IC50
T2 sequence (P30561 1-848 P471L/N533S/M589L): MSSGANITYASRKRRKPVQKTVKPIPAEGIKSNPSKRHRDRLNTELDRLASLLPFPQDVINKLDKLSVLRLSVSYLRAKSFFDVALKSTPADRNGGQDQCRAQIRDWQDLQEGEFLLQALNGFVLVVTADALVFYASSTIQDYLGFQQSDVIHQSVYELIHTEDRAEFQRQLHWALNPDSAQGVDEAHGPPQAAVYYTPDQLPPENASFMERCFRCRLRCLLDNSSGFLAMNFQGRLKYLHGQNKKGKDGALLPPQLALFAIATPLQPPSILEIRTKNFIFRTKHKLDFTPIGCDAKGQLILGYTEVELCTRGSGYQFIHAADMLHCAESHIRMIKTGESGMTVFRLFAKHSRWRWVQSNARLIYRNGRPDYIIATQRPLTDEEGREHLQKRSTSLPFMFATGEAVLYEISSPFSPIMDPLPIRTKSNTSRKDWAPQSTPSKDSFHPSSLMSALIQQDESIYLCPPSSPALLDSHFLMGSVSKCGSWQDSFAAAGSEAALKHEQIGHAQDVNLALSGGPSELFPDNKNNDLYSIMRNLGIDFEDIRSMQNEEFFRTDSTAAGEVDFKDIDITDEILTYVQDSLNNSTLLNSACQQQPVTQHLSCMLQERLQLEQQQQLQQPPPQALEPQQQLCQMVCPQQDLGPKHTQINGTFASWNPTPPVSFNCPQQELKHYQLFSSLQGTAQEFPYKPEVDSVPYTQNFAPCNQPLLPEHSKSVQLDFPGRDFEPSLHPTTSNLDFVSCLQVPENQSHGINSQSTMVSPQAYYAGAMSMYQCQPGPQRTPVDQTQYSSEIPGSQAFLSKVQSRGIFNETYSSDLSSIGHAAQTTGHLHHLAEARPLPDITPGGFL
Outline: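 Kynurenic acid-prestimulated mouse reporter cells; stable AHR-inducible firefly luc construct with DRE sites in promoter. No-agonist wells = positive inhibition ctrl. Luminescence normalized to pos/neg ctrls; n>1 reported as mean or median.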

IC50 (AHR [1]) [M]	IC50 (AHR [2]) [nM]	SMILES
1.77e-08	242	Cn1cc(-c2nc3c4cccc(C5CC5)c4nc(N[C@@H]4CCCCNC4=O)n3n2)cn1 [Example 207, (3R)-3-{[7-cyclopropyl-2-(1-methyl-1H-pyrazol-4-yl)[1,2,4]triazolo[1,5-c]quinazolin-5-yl]amino}azepan-2-one]
9.71e-10	2.49	Cn1cc(-c2nc3c4cccc(Br)c4nc(N[C@@H]4CCCCNC4=O)n3n2)cn1 [Example 212, (3R)-3-{[7-bromo-2-(1-methyl-1H-pyrazol-4-yl)[1,2,4]triazolo[1,5-c]quinazolin-5-yl]amino}azepan-2-one]
3.35e-09	12.1	O=C1NCCCC[C@H]1Nc1nc2c(Br)cccc2c2nc(-c3ccncc3)nn12 [Example 216, (3R)-3-{[7-bromo-2-(pyridin-4-yl)[1,2,4]triazolo[1,5-c]quinazolin-5-yl]amino}azepan-2-one]
3.46e-07	653	Cn1cc(-c2nc3c4cccc(Br)c4nc(N[C@@H]4CCCNC4=O)n3n2)cn1 [Example 221, (3R)-3-{[7-bromo-2-(1-methyl-1H-pyrazol-4-yl)[1,2,4]triazolo[1,5-c]quinazolin-5-yl]amino}piperidin-2-one]

Continued, molecule first:

SMILES	IC50 (AHR [1]) [M]	IC50 (AHR [2]) [nM]
CSc1ccc(-c2nc3c4ccccc4nc(N[C@@H]4CCCCNC4=O)n3n2)cc1 [Example 202, (3R)-3-({2-[4-(methylsulfanyl)phenyl][1,2,4]triazolo[1,5-c]quinazolin-5-yl}amino)azepan-2-one]	5.17e-10	0.657
O=C1NCCCC[C@H]1Nc1nc2c(C(F)(F)F)cccc2c2nc(-c3ccc(F)cc3)nn12 [Example 203, (3R)-3-{[2-(4-fluorophenyl)-7-(trifluoromethyl)[1,2,4]triazolo[1,5-c]quinazolin-5-yl]amino}azepan-2-one]	6.29e-10	0.48
COc1ccc(-c2nc3c4cccc(C(F)(F)F)c4nc(N[C@@H]4CCCCNC4=O)n3n2)cc1 [Example 204, (3R)-3-{[2-(4-methoxyphenyl)-7-(trifluoromethyl)[1,2,4]triazolo[1,5-c]quinazolin-5-yl]amino}azepan-2-one]	1.15e-09	1.02
COc1ccc(-c2nc3c4cccc(OC)c4nc(N[C@@H]4CCCCNC4=O)n3n2)cc1 [Example 205, (3R)-3-{[7-methoxy-2-(4-methoxyphenyl)[1,2,4]triazolo[1,5-c]quinazolin-5-yl]amino}azepan-2-one]	2.15e-09	7.65
COc1ccc(-c2nc3c4cccc(C5CC5)c4nc(N[C@@H]4CCCCNC4=O)n3n2)cc1 [Example 206, (3R)-3-{[7-cyclopropyl-2-(4-methoxyphenyl)[1,2,4]triazolo[1,5-c]quinazolin-5-yl]amino}azepan-2-one]	9.97e-09	7.88
O=C1NCCCC[C@H]1Nc1nc2c(Br)cccc2c2nc(-c3ccccc3OC(F)(F)F)nn12 [Example 208, (3R)-3-({7-bromo-2-[2-(trifluoromethoxy)phenyl][1,2,4]triazolo[1,5-c]quinazolin-5-yl}amino)azepan-2-one]	1.34e-06	23.8
COc1ccc(-c2nc3c4cccc(Br)c4nc(N[C@@H]4CCNC4=O)n3n2)cc1 [Example 218, (3R)-3-{[7-bromo-2-(4-methoxyphenyl)[1,2,4]triazolo[1,5-c]quinazolin-5-yl]amino}pyrrolidin-2-one]	8.68e-09	29.4
O=C1NCC[C@H]1Nc1nc2c(Br)cccc2c2nc(-c3ccccc3OC(F)(F)F)nn12 [Example 219, (3R)-3-({7-bromo-2-[2-(trifluoromethoxy)phenyl][1,2,4]triazolo[1,5-c]quinazolin-5-yl}amino)pyrrolidin-2-one]	8.15e-08	7.14
O=C1NCCC[C@H]1Nc1nc2c(Br)cccc2c2nc(-c3ccccc3OC(F)(F)F)nn12 [Example 220, (3R)-3-({7-bromo-2-[2-(trifluoromethoxy)phenyl][1,2,4]triazolo[1,5-c]quinazolin-5-yl}amino)piperidin-2-one]	2e-08	6.76
